Here are results for one compound from patent publication US20090111781A1, “Use of Cymipristone Type Compounds in Aids Treatment” (SHANGHAI THREE-ALLIANCE BIOTECHNOLOGIES CO., LTD., priority 2005, published 2009).

Assay [1] has as its target T1, human glucocorticoid receptor (Homo sapiens, UniProt P04150).
T1 construct: expressed in transfected cells; host or cells: CV-1 cells
T1 sequence (P04150 1-777): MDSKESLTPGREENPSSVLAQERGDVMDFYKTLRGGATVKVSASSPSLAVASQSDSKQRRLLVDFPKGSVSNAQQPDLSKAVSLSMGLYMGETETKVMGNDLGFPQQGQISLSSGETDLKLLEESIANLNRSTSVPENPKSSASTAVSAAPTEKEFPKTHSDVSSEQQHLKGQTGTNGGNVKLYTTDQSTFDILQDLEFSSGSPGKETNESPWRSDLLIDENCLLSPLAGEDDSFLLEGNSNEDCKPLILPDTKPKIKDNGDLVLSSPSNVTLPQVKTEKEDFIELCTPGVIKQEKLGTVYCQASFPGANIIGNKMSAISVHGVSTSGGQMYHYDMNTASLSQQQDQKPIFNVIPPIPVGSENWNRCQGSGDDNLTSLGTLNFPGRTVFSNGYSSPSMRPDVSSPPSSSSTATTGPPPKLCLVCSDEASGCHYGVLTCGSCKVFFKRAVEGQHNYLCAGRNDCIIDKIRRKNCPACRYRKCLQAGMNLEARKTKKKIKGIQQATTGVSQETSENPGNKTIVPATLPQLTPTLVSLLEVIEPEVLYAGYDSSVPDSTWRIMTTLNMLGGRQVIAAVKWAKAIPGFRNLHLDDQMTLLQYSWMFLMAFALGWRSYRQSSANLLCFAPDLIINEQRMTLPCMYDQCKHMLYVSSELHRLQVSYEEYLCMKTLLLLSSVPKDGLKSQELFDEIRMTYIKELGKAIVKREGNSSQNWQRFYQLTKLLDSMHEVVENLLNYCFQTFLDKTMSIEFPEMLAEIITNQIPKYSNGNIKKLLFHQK
Briefly: Antagonism on dexamethasone in CV-1 cells cotransfected with GR and luciferase reporter. The assay is classed as cell-based. As for the experimental part: Inoculate (6×10^5) of CV-1 cells into cell culture dish of 60 mm diameter using phenol red-free low-sugar DMEM containing 10% FBS as culture medium and incubate overnight under 37° C. and 5% CO2. Suction according to 1:5 ratio pipet 2 μg of plasmid carried GR genes and luciferase reporting genes, cotransfect CV-1 cells with FuGene 6 transfection reagent (from Roche), and incubate for 8 hours under above conditions, Inoculate the transfected cells into 96-pore micro culture plate, 8000 cells/100 μl/pore, and incubate cells to adhibit on the wall of dish. […] Discard the culture liquid, wash the cells twice with PBS, and pipet off all residual PBS. fragment the cells by CCLR Assay Kit (from Progema) for 15 min. Add 20 μl of fragmentation solution into 96 pore cell culture plate with white edge and white bottom, add CCLR substrate (from Progema), 100 μl/pore, and immediately detect the chemical luminescence count value caused by activated luciferase on Wallac 1420 Multilabel Counter.

Assay [2] deals with HIV-1 AZT-sensitive strain 018a P24 antigen. In words: Inhibition of HIV-1 018a P24 antigen in PBMC cell culture. The assay is classed as cell-based. To be noted: for EC50: Human immunodeficiency virus 1, PBMC, 2 h, administration after adsorbing 2 hours. As for the experimental part:
Collect cells with curette, infect cells with 10^−2 AZT sensitive (018a) or AZT resistant (018c) virus strain liquid, and adsorb for 2 hours, Wash off unabsorbed virus with 1640 culture medium without serum, prepare cells infected by virus to 1×10^6/ml with culture solution, and inoculate on 96-pore culture plate, 100 μl/pore. […] Set cell control group and virus infected cell control group. Incubate under 37° C. and 5% CO2. On the fourth day (96 hours), pipette out the supernatant liquid and store under −20° C. for determination of HIV-1 P24 antigen titer and calculation of drug inhibitory action. Add MTT staining to cells for determination of cytotoxicity. Determination of cytotoxicity by MTT staining: Add 10 μl of 5 mg/ml MTT stain into each pore, continue to incubate under 37° C., 5% CO2 and saturated humidity for 4 hours. […] Determine the HIV-1 P24 antigen titer according to the operation procedure provided by the HIV-1 P24 antigen reagent kit. Compare the drug-added group with virus control group. […] Calculation method of 50% toxic concentration (CC50), 50% effective concentration (EC50) and selection index (SI):
(3) Calculation Method of Selection Index (SI) on HIV-1 P24 Antigen in Cell Culture SI=CC50/EC50

In brackets after ≈: the same amount, converted by molar mass.

What is called IC50 is the concentration that gives 50% inhibition. By EC50 is commonly meant the concentration needed to bring the measured effect to its halfway point. Lower therefore signals higher potency in that assay.

In assay [1], `CC#C[C@]1(O)CC[C@H]2[C@@H]3CCC4=CC(=O)CCC4=C3[C@@H](c3ccc(N(C)C4CCCCC4)cc3)C[C@@]21C` [Cymipristone, 11β-[4-(N-methyl-N-cyclohexylamino)phenyl]-17α-(1-propynyl)-17β-hydroxyl-4,9-estradiene-3-one] showed an IC50 of 0.26 ± 0.02 nM. Besides, the “Antagonistic activity on human glucocorticoid receptor function caused by dexamethasone (in words)” value in assay [1] (gene cotransfected live cells) was “significant antagonistic activity”. Also, the EC50 in assay [2] (Average, PBMC) worked out at 12.4 µg/mL (≈ 24.8 µM); in assay [2] (Experiment 1, PBMC) it was 12.5 µg/mL (≈ 25.1 µM); in assay [2] (Experiment 2, PBMC), 12.2 µg/mL (≈ 24.6 µM). The SI stood at 10.53 in assay [2] (SI=CC50/EC50, Average); 8.30 in assay [2] (SI=CC50/EC50, Experiment 1); 12.76 in assay [2] (SI=CC50/EC50, Experiment 2).
